Source: patent US6362369B1, “Phthalic acid diamide derivatives fluorine-containing aniline compounds as starting material, agricultural and horticultural insecticides, and a method for application of the insecticides” (Nihon Nohyaku Co., Ltd., priority 1997, dated 2002)

Assays:
Assay type in all cases: in vivo
[1] = tested on: diamondback moth (Plutella xylostella); assay: Insecticidal effect on diamondback moth (Test Example 1); conditions: diamondback moth; judged by the mortality criterion of Test Example 1
Summary of the method: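 Eggs laid by adult moths on Chinese cabbage seedlings, which were immersed in test solution, air-dried and kept at 25 °C. Hatched insects counted 6 days after immersion and mortality calculated, with effect graded by criterion; triplicate groups of 10 insects.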

[2] = tested on: rice leafroller (Cnaphalocrocis medinalis); assay: Insecticidal effect on rice leafroller (Test Example 3); conditions: 500 ppm; rice lamina immersed; third-instar larvae of rice leafroller; four days after inoculation; 25° C., humidity 70%
Summary of the method: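 Groups of 10 third-instar larvae, in triplicate, are placed on air-dried lamina resting on wet filter paper. Incubation runs four days at 25° C with 70% humidity before survivors and dead are tallied.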

[3] = tested on: common cutworm (Spodoptera Litura); assay: Insecticidal effect on common cutworm (Test Example 2); conditions: 500 ppm; cabbage leaf immersed; second-instar larvae of common cutworm; eight days after inoculation; 25° C.
Summary of the method: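 Air-dried treated material was placed in a closed dish with second-instar larvae and held at 25° C. Dead and live insects were counted eight days after inoculation, and mortality was calculated and scored against a fixed insecticidal-effect criterion. Three replicate groups of 10 insects were used.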

Compound | Insecticidal effect, Test Example 1 [1] | Insecticidal effect, Test Example 3 [2] | Insecticidal effect, Test Example 2 [3]
Cc1cc(Br)ccc1NC(=O)c1cccc(Br)c1C(=O)NC(C)C [compound 272] | A (100) | A (100) | A (100)
Cc1c(Br)ccc(NC(=O)c2cccc(Br)c2C(=O)NC(C)C)c1C [compound 273] | A (100) | D (79-50) | D (79-50)
Cc1cc(I)ccc1NC(=O)c1cccc(Br)c1C(=O)NC(C)C [compound 274] | A (100) | A (100) | A (100)
Cc1cc(F)ccc1NC(=O)c1cccc(Br)c1C(=O)NC(C)C [compound 275] | A (100) | A (100) | D (79-50)
CC(C)NC(=O)c1c(Br)cccc1C(=O)Nc1ccc(C(F)(F)F)cc1Cl [compound 276] | A (100) | A (100) | A (100)
Cc1cc(C(F)(F)F)ccc1NC(=O)c1cccc(Br)c1C(=O)NC(C)C [compound 277] | A (100) | A (100) | A (100)
Cc1cc(C(F)(F)C(F)(F)F)ccc1NC(=O)c1cccc(Br)c1C(=O)NC(C)C [compound 278] | A (100) | A (100) | A (100)
Cc1cc(C(F)(F)C(F)(F)C(F)(F)F)ccc1NC(=O)c1cccc(Br)c1C(=O)NC(C)C [compound 279] | A (100) | A (100) | A (100)
COc1ccc(NC(=O)c2cccc(Br)c2C(=O)NC(C)C)c(C)c1 [compound 282] | A (100) | A (100) | A (100)
Cc1cc(OCC(F)(F)C(F)F)ccc1NC(=O)c1cccc(Br)c1C(=O)NC(C)C [compound 283] | A (100) | A (100) | A (100)
Cc1ccc(NC(=O)c2cccc(Br)c2C(=O)NC(C)C)c(C)c1OC(F)F [compound 284] | A (100) | A (100) | A (100)
COc1ccc(NC(=O)c2cccc(Br)c2C(=O)NC(C)C)c(C)c1C [compound 285] | A (100) | A (100) | D (79-50)
CC(C)NC(=O)c1c(Br)cccc1C(=O)Nc1ccc(OC(F)(F)F)cc1Cl [compound 286] | A (100) | A (100) | A (100)
CC(C)NC(=O)c1c(Br)cccc1C(=O)Nc1ccc(OC(F)(F)F)cc1Br [compound 287] | A (100) | A (100) | A (100)
Cc1cc(OC(F)F)ccc1NC(=O)c1cccc(Br)c1C(=O)NC(C)C [compound 288] | A (100) | A (100) | A (100)
Cc1cc(OC(F)(F)F)ccc1NC(=O)c1cccc(Br)c1C(=O)NC(C)C [compound 289] | A (100) | A (100) | A (100)

Compound | Insecticidal effect, Test Example 1 [1] | Insecticidal effect, Test Example 3 [2] | Insecticidal effect, Test Example 2 [3]
Cc1cc(OC(F)(F)Br)ccc1NC(=O)c1cccc(Br)c1C(=O)NC(C)C [compound 290] | A (100) | A (100) | A (100)
Cc1cc(OC(F)(F)C(F)C(F)(F)F)ccc1NC(=O)c1cccc(Br)c1C(=O)NC(C)C (stereo not drawn) [compound 291] | A (100) | A (100) | A (100)
Cc1cc(OC(F)(F)C(F)Cl)ccc1NC(=O)c1cccc(Br)c1C(=O)NC(C)C (stereo not drawn) [compound 292] | A (100) | A (100) | A (100)
Cc1cc(OC(F)(F)C(F)F)ccc1NC(=O)c1cccc(Br)c1C(=O)NC(C)C [compound 293] | A (100) | A (100) | A (100)
Cc1c(NC(=O)c2cccc(Br)c2C(=O)NC(C)C)ccc(OC(F)F)c1Cl [compound 294] | A (100) | A (100) | A (100)
CSc1ccc(NC(=O)c2cccc(Br)c2C(=O)NC(C)C)c(C)c1 [compound 296] | A (100) | A (100) | A (100)
Cc1cc(Oc2cccc(C(F)(F)F)c2)ccc1NC(=O)c1cccc(Br)c1C(=O)NC(C)C [compound 297] | A (100) | B (99-90) | A (100)
Cc1cc(Oc2ncc(C(F)(F)F)cc2Cl)ccc1NC(=O)c1cccc(Br)c1C(=O)NC(C)C [compound 298] | A (100) | A (100) | A (100)
Cc1cc(Oc2ccc(C(F)(F)F)cn2)ccc1NC(=O)c1cccc(Br)c1C(=O)NC(C)C [compound 299] | A (100) | A (100) | A (100)
CC(C)NC(=O)c1cccc(Br)c1C(=O)Nc1ccc(C(F)(F)F)cc1 [compound 301] | A (100) | D (79-50) | A (100)
Cc1c(Cl)cccc1NC(=O)c1c(Br)cccc1C(=O)NC(C)C [compound 305] | A (100) | A (100) | A (100)
Cc1cc(Cl)ccc1NC(=O)c1c(Br)cccc1C(=O)NC(C)C [compound 306] | A (100) | A (100) | A (100)
Cc1c(Br)ccc(NC(=O)c2c(Br)cccc2C(=O)NC(C)C)c1C [compound 312] | A (100) | A (100) | A (100)
Cc1cc(I)ccc1NC(=O)c1c(Br)cccc1C(=O)NC(C)C [compound 313] | A (100) | A (100) | A (100)
Cc1cc(C(F)(F)F)ccc1NC(=O)c1c(Br)cccc1C(=O)NC(C)C [compound 316] | A (100) | A (100) | A (100)
Cc1cc(C(F)(F)C(F)(F)C(F)(F)C(F)(F)F)ccc1NC(=O)c1c(Br)cccc1C(=O)NC(C)C [compound 318] | A (100) | A (100) | B (99-90)
